The text below walks through data of patent US7858790B2, “Modulators of muscarinic receptors” (Vertex Pharmaceuticals Incorporated, priority 2006, dated 2010).

One assay deals with T1, M1 muscarinic receptor (Homo sapiens, UniProt P11229).
T1 construct: expressed in transfected cells; host or cells: CHO (M1-CHO recombinant cell line)
T1 sequence (P11229 1-460): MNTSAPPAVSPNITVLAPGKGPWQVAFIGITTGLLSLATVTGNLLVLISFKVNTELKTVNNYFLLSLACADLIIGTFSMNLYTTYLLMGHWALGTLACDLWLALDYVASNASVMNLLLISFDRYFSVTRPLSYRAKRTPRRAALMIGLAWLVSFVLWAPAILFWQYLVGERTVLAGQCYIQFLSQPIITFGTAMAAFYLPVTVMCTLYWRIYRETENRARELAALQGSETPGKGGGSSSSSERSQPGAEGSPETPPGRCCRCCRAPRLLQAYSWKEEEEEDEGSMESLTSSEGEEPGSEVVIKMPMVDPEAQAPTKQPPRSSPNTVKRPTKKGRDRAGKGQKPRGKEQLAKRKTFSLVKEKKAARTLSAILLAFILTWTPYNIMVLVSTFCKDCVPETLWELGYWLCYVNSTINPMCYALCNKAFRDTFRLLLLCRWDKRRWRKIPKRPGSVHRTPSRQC
The assay can be described thus: Functional mobilization of intracellular calcium (FLIPR) in CHO cells expressing M1 muscarinic receptor. The conditions noted are these: for M1 Activity: CHO cells expressing M1, calcium mobilization; for Emax: CHO, 100% efficacy is the maximum response obtained with the Carbachol control. The format is cell-based. As to the method: (§1) VI. Assays for Detecting and Measuring Inhibition Properties of Compounds Functional Mobilization of Intracellular Calcium to Determine Muscarinic Receptor Activity:
(§2) CHO cells expressing muscarinic receptors (M1 to M5) are grown as monolayers in tissue culture flasks at 37° C. in a humidified atmosphere containing 5% CO2 and passaged every 3-5 days. The growth media is Dulbecco's modified eagles medium (DMEM, Gibco Cat# 12430-054), containing 25 mM Hepes and supplemented with Fetal Bovine Serum (Hyclone, cat# SH30071.03), 0.1 mM of MEM non-essential amino acids (GIBCO, Cat# 11140-050), 1 mM MEM Sodium Pyruvate (GIBCO Cat# 11360-070) and 100 units/ml of Penicillin G and 100 μg/ml of Streptomycin (GIBCO Cat# 15140-122). The recombinant muscarinic receptor cell lines are grown under antibiotic pressure with media containing 25 μg/ml zeocin and 500 μg/ml G418 (M1-CHO), 4 μg/ml puromycin, 50 μg/ml zeocin and 2.5 μg/ml blasticidin (M2 and M4-CHO) or 50 μg/ml zeocin and 4 μg/ml puromycin (M3 and M5-CHO).
(§3) Cells are harvested at 80-90% confluence using Versene (GIBCO Cat# 15040-066), collected by centrifugation and seeded 18-24 hours prior to running the calcium assay at a density of 5,000-10,000 cells/well in […], clear-bottomed 384-well plates (BD Biocoat, poly-D-lysine, Cat#356663). The day of the experiment, the cells are washed with a plate washer (Bioteck Instruments, ELX 405) using bath buffer (140-mM NaCl, 4.5-mM KCl, 2-mM CaCl2, 1-mM MgCl2, 10-mM Hepes-Na, 10-mM Glucose, pH 7.4, with NaOH) containing 1 mM Probenecid. Next, the calcium dye Fluo-3 (25 μl/well of Fluo-3 μM at 4 μM, Molecular Probes F-1241, in Bath 1 buffer containing 1 mM Probenecid) is added to the 25 μl of Bath 1 remaining in each well after the plate wash and the dye is loaded at 37° C. in the tissue culture incubator for 60-90 min. The fluorescent dye is removed using the plate washer with Bath 1 containing 1 mM Probenecid, leaving 25 μl/well of this solution after the wash. Alternatively, cells can be loaded with the calcium indicator from Molecular Devices (Calcium 3 Assay Reagents, Cat # R7181) adding 5 μl of a 5× solution dye in Bath 1 containing 1 mM Probenecid (10 ml per dye flask cat# R7182 to generate a solution 20×) to 20 μl of the same buffer. After loading for 60 min, the experiment can be run without having to remove the dye.
(§4) Compounds are prepared at a 2× fold concentration in a 96-well plate (round bottom, Costar Corning cat# 3656), by reconstituting the pre-spotted compounds in bath 1 containing 1 mM probenecid. The final concentration DMSO is 0.5%, and the amount of DMSO is normalized across the assay plate. To determine an agonist action of the compounds on muscarinic receptors, the reconstituted compounds are added (25 μl compound/well) to the cell assay plate (containing 25 μl/well) using the multi-channel robotic system of the FLIPR 3 Instrument (Molecular Devices, Sunnyvale, Calif.). To determine a functional inhibitory-action of the compounds on muscarinic receptors, the reconstituted compounds are added (25 μl compound/well) to the assay plate and pre-incubated for 15 min prior to adding 25 μl of Carbachol at 3× the EC80 for each muscarinic subtype. Alternatively, the compounds can be co-applied simultaneously with the agonist. In both assay modes, the fluorescence is recorded for 60 sec (excitation wavelength is […] and emission wavelength 540 nm) using the FLIPR 3 instrument.
(§5) The potency, efficacy and selectivity of the muscarinic compounds were evaluated by screening the compound activity across the whole family (M1 to M5 cells). Compounds were also screened for activity on other proteins such as other GPCRs and ion channels to determine selectivity on M4 receptors.
(§6) Examples of activities and efficacies of the muscarinic compounds of formulae (I, Ia, and Ib) on modulating M1 and M4 receptors are shown below in Table 8. […]
(Calcium assays in cells follow changes in intracellular calcium, usually with a dye or a luminescent sensor.)

The target of a further assay is T2, M4 muscarinic receptor (Homo sapiens, UniProt P08173).
T2 construct: expressed in transfected cells; host or cells: CHO (M4-CHO recombinant cell line)
T2 sequence (P08173 1-479): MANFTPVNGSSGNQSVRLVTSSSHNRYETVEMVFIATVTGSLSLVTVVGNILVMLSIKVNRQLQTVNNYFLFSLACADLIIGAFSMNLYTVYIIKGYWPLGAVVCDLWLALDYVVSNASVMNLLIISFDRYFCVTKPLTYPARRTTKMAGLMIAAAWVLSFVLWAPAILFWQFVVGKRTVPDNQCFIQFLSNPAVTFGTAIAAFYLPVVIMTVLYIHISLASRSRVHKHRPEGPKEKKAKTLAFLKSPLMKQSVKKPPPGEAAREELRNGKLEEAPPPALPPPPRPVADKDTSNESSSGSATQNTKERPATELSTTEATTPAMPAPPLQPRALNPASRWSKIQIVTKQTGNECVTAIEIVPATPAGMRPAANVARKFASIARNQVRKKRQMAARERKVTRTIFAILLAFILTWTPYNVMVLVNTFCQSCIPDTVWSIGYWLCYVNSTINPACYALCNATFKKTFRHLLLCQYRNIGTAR
The assay is described as follows: Functional mobilization of intracellular calcium (FLIPR) in CHO cells expressing M4 muscarinic receptor. It counts as cell-based. The note with it: for M4 Activity: CHO cells expressing M4, calcium mobilization; for Emax: CHO, 100% efficacy is the maximum response obtained with the Carbachol control. As for the experimental part:
as §1, §2, §3, §4, §5, §6

A word on the Emax: it is the size of the effect at its maximum, as opposed to the concentration needed. For `CC(C)NC(=O)C1=CCC2(CCN(C3C[C@@H]4CC[C@@H]3C4)CC2)c2ccccc21` (some centres unmarked) [compound 36], at M1 muscarinic receptor, the “M1 Activity” value was “+ (activity was measured to be greater than 10.0 μM)” and the Emax was less than 25%. Further, at M4 muscarinic receptor, the “M4 Activity” value is “+ (activity was measured to be greater than 10.0 μM)” and the maximum response (Emax) is less than 25%.
As to `CCC(CC)NC(=O)C1=CC2(CCN(CCC(C)(C)C)CC2)c2ccccc21` [compound 39], at M1 muscarinic receptor, the “M1 Activity” value is recorded as “+ (activity was measured to be greater than 10.0 μM)” and the Emax was less than 25%. Further, at M4 muscarinic receptor, the “M4 Activity” value is given as “++ (activity was measured to be from 2.0 μM to 10.0 μM)” and the Emax fell in the range of 25 to 100%.
Regarding `CCC(CC)NC(=O)C1=CC2(CCN(CCC(C)C)CC2)c2ccccc21` [compound 40], on M1 muscarinic receptor, the “M1 Activity” value is given as “+ (activity was measured to be greater than 10.0 μM)” and the Emax was less than 25%. Besides, on M4 muscarinic receptor, the “M4 Activity” value is “++ (activity was measured to be from 2.0 μM to 10.0 μM)” and the Emax was in the range of 25 to 100%.
On the same counts, the results for `CNC(=O)C1=CC2(CCN(C3CCCCCC3)CC2)c2ccccc21` [compound 41] are “++ (activity was measured to be from 2.0 μM to 10.0 μM)”, 25 to 100%, “+++ (activity was measured to be less than 2.0 μM)” and 25 to 100%.
The corresponding values for `CCCOC(=O)N1CCC(N2CCC3(C=C(C(=O)NC(CC)CC)c4ccccc43)CC2)CC1` [compound 42] are “+ (activity was measured to be greater than 10.0 μM)”, less than 25%, “+ (activity was measured to be greater than 10.0 μM)” and less than 25%.
On to `CCOC(=O)N1CCC(N2CCC3(CC=C(C(=O)N4CCCC4)c4ccccc43)CC2)CC1` [compound 43], for which, on M1 muscarinic receptor, the “M1 Activity” value was “+++ (activity was measured to be less than 2.0 μM)” and the Emax was 25 to 100%. At M4 muscarinic receptor, the “M4 Activity” value is given as “+++ (activity was measured to be less than 2.0 μM)” and the Emax was in the range of 25 to 100%.
On to `CN(C)C(=O)C1=CC2(CCN(C3CCCCCC3)CC2)c2ccccc21` [compound 44], for which, on M1 muscarinic receptor, the “M1 Activity” value was “+ (activity was measured to be greater than 10.0 μM)” and the Emax is 25 to 100%. Besides, at M4 muscarinic receptor, the “M4 Activity” value is reported as “+++ (activity was measured to be less than 2.0 μM)” and the Emax lay within 25 to 100%.
As for `CCC(CC)NC(=O)C1=CC2(CCN(C3CCN(C(=O)C4CC4)CC3)CC2)c2ccccc21` [compound 45], at M1 muscarinic receptor, the “M1 Activity” value is recorded as “+ (activity was measured to be greater than 10.0 μM)” and the maximal response (Emax) was less than 25%. Also, at M4 muscarinic receptor, the “M4 Activity” value is “+ (activity was measured to be greater than 10.0 μM)” and the Emax was in the range of 25 to 100%.
`CN(C)C(=O)C1=CCC2(CCN(CCC(C)(C)C)CC2)c2ccccc21` [compound 46]: at M1 muscarinic receptor, the “M1 Activity” value is reported as “++ (activity was measured to be from 2.0 μM to 10.0 μM)” and the Emax fell in the range of 25 to 100%. In addition, at M4 muscarinic receptor, the “M4 Activity” value is “+++ (activity was measured to be less than 2.0 μM)” and the Emax lay within 25 to 100%.
Regarding `O=C(NC1CCC1)C1=CC2(CCN(CC3CC4C=CC3C4)CC2)c2ccccc21` (centres unmarked) [compound 47], on M1 muscarinic receptor, the “M1 Activity” value was “++ (activity was measured to be from 2.0 μM to 10.0 μM)” and the Emax was in the range of 25 to 100%. Further, at M4 muscarinic receptor, the “M4 Activity” value is listed as “+++ (activity was measured to be less than 2.0 μM)” and the maximal response (Emax) was 25 to 100%.
As to `CNC(=O)C1=CC2(CCN(CCCCSC)CC2)c2ccccc21` [compound 49], on M1 muscarinic receptor, the “M1 Activity” value is listed as “+ (activity was measured to be greater than 10.0 μM)” and the Emax was less than 25%. Besides, at M4 muscarinic receptor, the “M4 Activity” value is “+ (activity was measured to be greater than 10.0 μM)” and the Emax was less than 25%.
Take `CCCC(C)NC(=O)C1=CC2(CCN(CC3CC4C=CC3C4)CC2)c2ccccc21` (centres unmarked) [compound 50]: at M1 muscarinic receptor, the “M1 Activity” value was “+ (activity was measured to be greater than 10.0 μM)” and the Emax was less than 25%. On M4 muscarinic receptor, the “M4 Activity” value is “+++ (activity was measured to be less than 2.0 μM)” and the Emax fell in the range of 25 to 100%.
On the same counts, the results for `CC(C)(C)CCN1CCC2(CC=C(C#N)c3ccccc32)CC1` [compound 51, 1′-(3,3-dimethylbutyl)-2H-spiro[naphthalene-1,4′-piperidine]-4-carbonitrile] are “+++ (activity was measured to be less than 2.0 μM)”, 25 to 100%, “+++ (activity was measured to be less than 2.0 μM)” and 25 to 100%.
As for `CC(C)NC(=O)C1=CCC2(CCN(CCC(C)(C)C)CC2)c2ccccc21` [compound 52], on M1 muscarinic receptor, the “M1 Activity” value was “+ (activity was measured to be greater than 10.0 μM)” and the Emax was less than 25%. In addition, on M4 muscarinic receptor, the “M4 Activity” value is on record as “+ (activity was measured to be greater than 10.0 μM)” and the Emax was less than 25%.
On to `CCC(CC)NC(=O)C1=CC2(CCN(CCC3CCOCC3)CC2)c2ccccc21` [compound 53], for which, at M1 muscarinic receptor, the “M1 Activity” value was “+ (activity was measured to be greater than 10.0 μM)” and the Emax was less than 25%. Moreover, on M4 muscarinic receptor, the “M4 Activity” value is on record as “+++ (activity was measured to be less than 2.0 μM)” and the Emax lay in the range of 25 to 100%.
Turning to `O=C(O)C1=CC2(CCN(CC3CCCCC3)CC2)c2ccccc21` [compound 54], on M1 muscarinic receptor, the “M1 Activity” value is recorded as “+ (activity was measured to be greater than 10.0 μM)” and the Emax was less than 25%. In addition, on M4 muscarinic receptor, the “M4 Activity” value was “+ (activity was measured to be greater than 10.0 μM)” and the Emax was less than 25%.
Regarding `CCC(CC)NC(=O)C1=CC2(CCN(CCCCSC)CC2)c2ccccc21` [compound 55], at M1 muscarinic receptor, the “M1 Activity” value was “+ (activity was measured to be greater than 10.0 μM)” and the Emax was less than 25%. In addition, on M4 muscarinic receptor, the “M4 Activity” value was “+ (activity was measured to be greater than 10.0 μM)” and the Emax is less than 25%.
